Test results from patent US11390900B2, “Antimicrobial cartridges and processes for multiplexed antimicrobial susceptibility testing” (priority 2018, dated 2022).
In brackets after ≈: the same amount, converted by molar mass. Like-named read-outs stand apart in the source and are kept apart here.

How the values were obtained:
K. pneumoniae 700603 = settings: MIC range, K. pneumoniae 700603, Gram negative panel; cited from earlier work
patient sample microbes [1] = settings: antimicrobial panel 1, MIC range; cited from earlier work
E. faecalis 29212 = settings: cited from earlier work; for CLSI-Defined QC Range: MIC range; for CLSI-Defined QC Range, screen result: E. faecalis 29212, no growth @ 100 48 hrs (streptomycin), @ 500 24 hrs (gentamicin)
patient sample microbes [2] = settings: antimicrobial panel 2, MIC range; cited from earlier work
patient sample microbes [3] = assay: AST MIC results for antimicrobial panel 2 (384-well panel from Master Plate vs 96-well panel); assay type: cell-based; settings: for MICs obtained from panel made from Master Plate: antimicrobial panel 2, 384 well patient cartridge; for MICs obtained from 96-well Antibiotic Panel: antimicrobial panel 2, standard 96 well AST assay plate
From the text: (§1) An assay setup comprises preparation of patient (target) cartridge by dispensing antimicrobials were from the master cartridge or intermediate serial dilution cartridges into one or more 384 reservoir patient cartridge, each antimicrobial in about 7 serial dilutions in triplicate, and covering the dynamic range of each antimicrobial that is known to be effective and therefore should be reported. The dilution range included the expected minimum inhibitory concentration (MIC) for each antimicrobial. But most importantly, dilution ranges, that is, antimicrobial concentrations beyond the range known to be effective are included in the patient cartridge as per the present invention.
(§2) The remaining reservoirs of the 384 well patient cartridge are utilized for setting up test controls: a no-antimicrobial control (negative control) was included for each antimicrobial compound; and a positive control was included for each antimicrobial set, where a microorganism that is not susceptible to the antimicrobial was added to the well. Each control set was also dispensed at least in duplicate per 384 well cartridge. Additional test controls may be included as deemed necessary by one of skill in the art. Equal amount of a patient sample was dispensed to each of the wells in the cartridge, except in the wells designated for no-sample control, if included. The patient cartridge was ready for determination of susceptibility of microbes from the patient sample to the twelve antimicrobials at the range of concentrations applied, simultaneously. Multiple such plates can be set up in parallel for testing samples from multiple patients, each patient sample per plate. An AST assay was performed on the prepared patient cartridges.
(§3) First, three master plates are loaded by the user onto chilled plate holders (set to 4° C.). These consist of one Broad Spectrum, one Gram-Positive and one Gram-Negative antibiotic plate. Next the bulk reagents and pipette tips are loaded on tube rack. Master and bulk reagent pipette tips and sample dilution tray are reloaded every 12 samples. For every set of tests, up to four Patient Samples in tubes and up to four 384-well Target Plates (Patient plate) are loaded.
(§4) Antibiotics are transferred from Broad Spectrum Master Plate to Target Plate(s). Antibiotics are “stamped” according to FIG. 10A-B. The inoculator tips should be placed back in the same position of the Broad Spectrum Tip Box for use on subsequent target plates, but should only be used for same antibiotics to avoid cross contamination.
(§5) Antimicrobials are transferred from Gram-Positive OR Gram-Negative Master Plate to Target Plate(s) and the antibiotics are “stamped” according to FIG. 11A-B. The inoculator should place tips back in the same position of the correct tip box for use on subsequent target plates. Good care is taken such that any cross contamination is prevented.
(§6) Using new tips from the Sample Tip Box, 50 μL of diluted patient sample are transferred into Target Plate according to Table Four, this is done with a “jet dispense” to avoid cross contamination. After the Patient Sample has been transferred to each well on the Target Plate, the tips should be disposed of to avoid cross contamination. The above steps are repeated for each additional Patient Sample and Target Plate.
(§7) Shown in Table 6 and Table 7, MIC results for antimicrobial panels 1 and 2 respectively using a master cartridge format and a 384 well patient cartridge (column 3) agrees reliably with that run by standard 96 well AST assay plate (right hand column).

patient sample microbes [4] = assay: AST MIC results for antimicrobial panel 1 (384-well panel from Master Plate vs 96-well panel); assay type: cell-based; settings: for MICs obtained from panel made from Master Plate: antimicrobial panel 1, 384 well patient cartridge; for MICs obtained from 96-well Antibiotic Panel: antimicrobial panel 1, standard 96 well AST assay plate
From the text: as §1, §2, §3, §4, §5, §6, §7

E. coli 25922 = settings: MIC range, E. coli 25922, Gram negative panel; cited from earlier work
S. aureus 29213 = settings: cited from earlier work; for CLSI-Defined QC Range, screen result: S. aureus 29213, no growth @ 0.5/4 (Cli/Ery), @ 4 (cefoxitin), @ 256 (mupirocin); for CLSI-Defined QC Range: MIC range
S. aureus 43300 = settings: growth @ 4; cited from earlier work
[5] = tested on: clinical isolate of S. aureus; assay: Broth microdilution reference method MIC; assay type: cell-based; settings: Staphylococcus aureus, read-out: MICs obtained from the broth microdilution reference method
Description: The antibiotics shown are vancomycin, daptomycin, ceftaroline and levofloxacin, of which the MICs obtained from the broth microdilution reference method for this strain were 0.5, 0.25, 0.12, and 0.25 μg/ml, respectively. A clinical isolate of S. aureus was used. Data represents the TRF signal in RFUs. Graphs in the top row contain data from 384-well plates. Graphs in the bottom row contain data from 96-well plates.

S. aureus BAA-1708 = settings: growth @ 256; cited from earlier work
E. faecalis 51299 = settings: growth @ 100 (streptomycin), @ 500 (gentamicin); cited from earlier work
[6] = E. faecalis 29212, Gram positive panel
[7] = S. aureus 29213, Gram negative panel
[8] = E. faecalis 29212, Gram negative panel

## CC1(C)S[C@@H]2[C@H](NC(=O)[C@H](N)c3ccc(O)cc3)C(=O)N2[C@H]1C(=O)O [Amoxicillin (alone), Amoxicillin]
K. pneumoniae 700603
  CLSI-Defined QC Range: >128 µg/mL

## CC1(C)S[C@@H]2[C@H](NC(=O)[C@H](N)c3ccccc3)C(=O)N2[C@H]1C(=O)O [Ampicillin]
Patient sample microbes [1]
  Quality Control Range: 2-8
E. faecalis 29212; [6]
  CLSI-Defined QC Range: 0.5 to 2 µg/mL
Patient sample microbes [2]
  Quality Control Range: 0.5-2
Patient sample microbes [3]
  MICs obtained from panel made from Master Plate: 1 µg/mL
  MICs obtained from 96-well Antibiotic Panel: 1 µg/mL
Patient sample microbes [4]
  MICs obtained from panel made from Master Plate: 4 µg/mL
  MICs obtained from 96-well Antibiotic Panel: 8 µg/mL
E. coli 25922
  CLSI-Defined QC Range: 2 to 8 µg/mL
K. pneumoniae 700603
  CLSI-Defined QC Range: >128 µg/mL

## C[C@H]1[C@H](NC(=O)/C(=N\OC(C)(C)C(=O)O)c2csc(N)n2)C(=O)N1S(=O)(=O)O [Aztreonam]
E. coli 25922
  CLSI-Defined QC Range: 0.06 to 0.25 µg/mL
K. pneumoniae 700603
  CLSI-Defined QC Range: 8 to 64 µg/mL

## CO[C@@]1(NC(=O)Cc2cccs2)C(=O)N2C(C(=O)O)=C(COC(N)=O)CS[C@@H]21 [Cefoxitin]
S. aureus 29213
  CLSI-Defined QC Range, screen result: Negative (No growth
E. coli 25922
  CLSI-Defined QC Range: 2 to 8 µg/mL
S. aureus 43300
  CLSI-Defined QC Range, screen result: Positive (Growth @

## CCO/N=C(\C(=O)N[C@@H]1C(=O)N2C(C(=O)[O-])=C(Sc3nc(-c4cc[n+](C)cc4)cs3)CS[C@H]12)c1nsc(N)n1 [Ceftaroline]
Patient sample microbes [3]
  MICs obtained from panel made from Master Plate: 0.5 µg/mL
  MICs obtained from 96-well Antibiotic Panel: 0.25 µg/mL
[5]; clinical isolate of S. aureus
  MIC: 0.12 µg/mL (≈ 0.198 µM)

## CC(C)(O/N=C(\C(=O)N[C@@H]1C(=O)N2C(C(=O)[O-])=C(C[n+]3ccccc3)CS[C@H]12)c1csc(N)n1)C(=O)O [Ceftazidime]
Patient sample microbes [1]
  Quality Control Range: 0.06-0.5
Patient sample microbes [2]
  Quality Control Range: 4-16
Patient sample microbes [3]
  MICs obtained from panel made from Master Plate: 4 µg/mL
  MICs obtained from 96-well Antibiotic Panel: 8 µg/mL
Patient sample microbes [4]
  MICs obtained from panel made from Master Plate: ≤ 1 µg/mL
  MICs obtained from 96-well Antibiotic Panel: 0.25 µg/mL
S. aureus 29213; [7]
  CLSI-Defined QC Range: 4 to 16 µg/mL
K. pneumoniae 700603
  CLSI-Defined QC Range: 16 to 64 µg/mL

## CO/N=C(\C(=O)N[C@@H]1C(=O)N2C(C(=O)O)=C(CSc3nc(=O)c(=O)[nH]n3C)CS[C@H]12)c1csc(N)n1 [Ceftriaxone]
Patient sample microbes [1]
  Quality Control Range: 0.03-0.12
Patient sample microbes [2]
  Quality Control Range: 1-8
Patient sample microbes [3]
  MICs obtained from panel made from Master Plate: 2 µg/mL
  MICs obtained from 96-well Antibiotic Panel: 4 µg/mL
Patient sample microbes [4]
  MICs obtained from panel made from Master Plate: ≤ 0.125 µg/mL
  MICs obtained from 96-well Antibiotic Panel: ≤ 0.12 µg/mL
S. aureus 29213; [7]
  CLSI-Defined QC Range: 1 to 8 µg/mL

## CCCCCCCCCC(=O)N[C@@H](Cc1c[nH]c2ccccc12)C(=O)N[C@H](CC(N)=O)C(=O)N[C@@H](CC(=O)O)C(=O)N[C@@H]1C(=O)NCC(=O)N[C@@H](CCCN)C(=O)N[C@@H](CC(=O)O)C(=O)N[C@H](C)C(=O)N[C@@H](CC(=O)O)C(=O)NCC(=O)N[C@H](CO)C(=O)N[C@@H]([C@H](C)CC(=O)O)C(=O)N[C@@H](CC(=O)c2ccccc2N)C(=O)O[C@@H]1C [Daptomycin]
E. faecalis 29212; [6]
  CLSI-Defined QC Range: 1 to 4 µg/mL
[5]; clinical isolate of S. aureus
  MIC: 0.25 µg/mL (≈ 0.154 µM)

## C[C@H]1COc2c(N3CCN(C)CC3)c(F)cc3c(=O)c(C(=O)O)cn1c23 [Levofloxacin]
Patient sample microbes [3]
  MICs obtained from panel made from Master Plate: ≤ 0.25 µg/mL
  MICs obtained from 96-well Antibiotic Panel: 0.25 µg/mL
Patient sample microbes [4]
  MICs obtained from panel made from Master Plate: ≤ 0.25 µg/mL
  MICs obtained from 96-well Antibiotic Panel: ≤ 0.06 µg/mL
[5]; clinical isolate of S. aureus
  MIC: 0.25 µg/mL (≈ 0.692 µM)

## C/C(=C\C(=O)OCCCCCCCCC(=O)O)C[C@@H]1OC[C@H](C[C@@H]2O[C@H]2[C@@H](C)[C@H](C)O)[C@@H](O)[C@H]1O [Mupirocin High Level Screen, Mupirocin]
S. aureus 29213
  CLSI-Defined QC Range, screen result: Negative (No growth
S. aureus BAA-1708
  CLSI-Defined QC Range, screen result: Positive (Growth @

## [H]/N=C(/N)N[C@H]1[C@H](O)[C@@H](O)[C@H](O[C@@H]2O[C@@H](C)[C@](O)(C=O)[C@H]2O[C@@H]2O[C@@H](CO)[C@H](O)[C@@H](O)[C@@H]2NC)[C@@H](N/C(N)=N\[H])[C@@H]1O [Streptomycin High Level Screen, Streptomycin]
E. faecalis 29212
  CLSI-Defined QC Range, screen result: Negative (No growth
E. faecalis 51299
  CLSI-Defined QC Range, screen result: Positive (Growth @

## NC[C@H]1O[C@H](O[C@H]2[C@H](O)[C@@H](O[C@H]3O[C@H](CO)[C@@H](O)[C@H](N)[C@H]3O)[C@H](N)C[C@@H]2N)[C@H](N)C[C@@H]1O [Tobramycin]
Patient sample microbes [1]
  Quality Control Range: 0.25-1
E. faecalis 29212; [8]
  CLSI-Defined QC Range: 8 to 32 µg/mL
Patient sample microbes [4]
  MICs obtained from panel made from Master Plate: 0.5 µg/mL
  MICs obtained from 96-well Antibiotic Panel: 1 µg/mL

## CN[C@H](CC(C)C)C(=O)N[C@H]1C(=O)N[C@@H](CC(N)=O)C(=O)N[C@H]2C(=O)N[C@H]3C(=O)N[C@H](C(=O)N[C@H](C(=O)O)c4cc(O)cc(O)c4-c4cc3ccc4O)[C@H](O)c3ccc(c(Cl)c3)Oc3cc2cc(c3O[C@@H]2O[C@H](CO)[C@@H](O)[C@H](O)[C@H]2O[C@H]2C[C@](C)(N)[C@H](O)[C@H](C)O2)Oc2ccc(cc2Cl)[C@H]1O [Vancomycin]
S. aureus 29213; S. aureus 29213, Gram positive panel
  CLSI-Defined QC Range: 0.5 to 2 µg/mL
[5]
  MIC: 0.5 µg/mL (≈ 0.345 µM)

## Gentamicin
E. faecalis 29212
  CLSI-Defined QC Range, screen result: Negative (No growth
E. faecalis 29212; [8]
  CLSI-Defined QC Range: 4 to 16 µg/mL
E. faecalis 29212; [6]
  CLSI-Defined QC Range: 4 to 16 µg/mL
E. faecalis 51299
  CLSI-Defined QC Range, screen result: Positive (Growth @
